Experimental data published in patent US9977014B2, “Nanoparticle sensor for nucleic acid-protein interaction” (Agency for Science, Technology and Research, priority 2013, dated 2018).

Tests used:
AP-2γ [1] = target: T1, AP-2γ (Homo sapiens, UniProt Q92754); assay: Fluorescence anisotropy (FA) with labelled DNA probes; design: made in house; details: read-out: Binding constant (Kd)
AP-2γ [2] = target: T1, AP-2γ; assay: CP/dsDNA-AuNP hybrid sensor protein titration
Experimental: The protein-DNA binding assay was conducted in three main steps (FIG. 4(A)): • 1) 50 nM dsDNA-AuNPs (referring to dsDNA concentration on the surface of AuNPs) was incubated with protein for 20-40 min at room temperature (RT).
Based on the relationship between protein concentration and fluorescence intensity, the binding constant, Kd, can be calculated using the equation: (F0−F)/(F−Fsat)=([protein]/Kd)^n. […] The slope, n, is the binding stoichiometry of protein to DNA.
The assay was also used to study a second transcription factor, AP-2γ (pI˜7.8), to test the applicability of the method. wtR3 and mtR3 were used as the probe DNA sequences (Table 2). […] From the relative decrease and increase in fluorescent intensity of CP with increasing concentration of AP-2γ, the binding affinity Kd and n were determined.

AP-2γ [3] = target: T1, AP-2γ; assay: Electrophoretic Mobility Shift Assay (EMSA), DNA probe binding; design: made in house; details: read-out: Binding constant (Kd)
Source text: (§1) Electrophoretic Mobility Shift Assay (EMSA): Invitrogen Corporation, Panomics Inc., Pierce Biotechnology, Viagene Inc.

FoxA1 [4] = target: T2, FoxA1 (Homo sapiens, UniProt P55317); assay: CP/dsDNA-AuNP hybrid sensor protein titration; details: read-out: Binding constant (Kd)
T2 construct: Full-length FoxA1 cDNA was cloned into a pHISMBP (Addgene) expression vector; made in house; host or cells: E. coli BL21 (DE3)
T2 sequence (P55317 1-472): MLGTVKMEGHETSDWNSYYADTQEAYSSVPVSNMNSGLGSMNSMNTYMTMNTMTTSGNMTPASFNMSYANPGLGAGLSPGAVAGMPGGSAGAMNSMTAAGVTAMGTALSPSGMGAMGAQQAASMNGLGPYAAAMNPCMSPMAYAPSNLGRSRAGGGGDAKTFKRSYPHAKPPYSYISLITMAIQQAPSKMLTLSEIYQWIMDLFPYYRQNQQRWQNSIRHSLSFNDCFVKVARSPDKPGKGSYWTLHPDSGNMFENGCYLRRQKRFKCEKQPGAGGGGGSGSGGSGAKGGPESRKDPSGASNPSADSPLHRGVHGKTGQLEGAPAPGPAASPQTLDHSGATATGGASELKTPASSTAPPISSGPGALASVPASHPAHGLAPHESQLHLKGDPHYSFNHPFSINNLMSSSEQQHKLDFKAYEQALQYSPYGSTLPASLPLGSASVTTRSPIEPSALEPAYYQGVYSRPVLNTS
Experimental: Qualitatively, the affinity of FOxA1 to different DNA probes can be identified by the degree of change in fluorescence intensity. For measuring the binding affinity constant Kd, protein titration was conducted using protein:DNA molar ratios of 0:1 to 5:1. That is, in a 50 nM solution of dsDNA-AuNPs, protein was added to achieve a concentration of 0-250 nM. The respective fluorescence intensity of the subsequent CP emission was recorded and compared with a control reaction containing no protein (FIG. 12).

FoxA1 [5] = target: T2, FoxA1; assay: Electrophoretic Mobility Shift Assay (EMSA), DNA probe binding; details: read-out: Binding constant (Kd)
Source text: as §1

His-MBP-FoxA1 = target: T3, His-MBP-FoxA1 (Homo sapiens, UniProt P55317); assay: Fluorescence anisotropy (FA) with FAM-labelled DNA probes; details: read-out: Binding constant (Kd)
T3 construct: Full-length FoxA1 cDNA was cloned into a pHISMBP (Addgene) expression vector; made in house; host or cells: E. coli BL21 (DE3)
T3 sequence (P55317 1-472): T2 sequence (P55317 1-472)
Experimental: Fluorescence anisotropy (FA): To determine the binding activity of His-MBP-FoxA1 to various FoxA1 probes containing its cognate DNA element, fluorescence anisotropy (FA) assay was utilized. The wildtype and two mutant probes for FoxA1, labelled with carboxyfluorescein (FAM), are as described earlier in Table 1. The assays were carried out in 384-well microplates (Corning) in which varying concentrations of protein were incubated with 2 nM of the labelled probe in PBS buffer for 20 min at room temperature (RT). To examine the effects of small molecule inhibitors on FoxA1 DNA binding, 125 nM of protein was pre-incubated with 5% DMSO, or 1 mM unlabelled probe, or 1.9 mM inhibitor for 1 h, at room temperature (RT), before the addition of 2 nM of the FAM labelled probe for another hour incubation.
Fluorescence anisotropy was measured using Synergy 2 Multi-Mode Microplate Reader with a 485/20-excitation and a 528/20-emission filter. The equilibrium dissociation constants for each wild-type probe were subsequently calculated by fitting the FoxA1 concentration vs. fluorescence polarization plot using Langmuir isotherm in Origin Pro 8 software. Standard error values (precision of the fitted values) were also obtained from the software after fitting.

FoxA1 [6] = target: T2, FoxA1; assay: Ligand inhibition of DNA-protein interaction, CP/Probe2-AuNP hybrid sensor; type: binding; details: protein:ligand 1:8
Experimental: For screening of ligand inhibition of the DNA-protein interaction (FIG. 4(B)), the ligand and protein were incubated at a molar ratio of 8:1 for 10-20 min at RT prior to the addition of dsDNA-AuNP in step (1) above. Steps (1), (2) and (3) were then repeated.
The proteins and each ligand were mixed at a ratio of 1:8 for 10 min. The protein-ligand pre-incubation solution was then mixed with dsDNA-AuNP and further incubated for 20 mins. The CP was then added as the last step. Positive and negative controls were also prepared, where the positive control was dsDNA-AuNP incubated with protein without ligand, and the negative control was dsDNA-AuNPs incubated without any protein added.

FoxA1 and AP2γ = assay: Ligand selectivity (positive = inhibitor, negative) listed in Table 3; type: binding; design: key: Positive: A positive ligand refers to a ligand that can inhibit protein binding to DNA; Negative: a negative ligand is a ligand that does not interrupt the binding
Source text: 9 small ligands (as described in Table 3) were used to disrupt the DNA-protein interaction. […] It must be clearly understood that a particular ligand can bind strongly (with high affinity) to a certain protein but not inhibit the subsequent protein binding to DNA and vice versa. The main objective of this assay is to screen ligands that can interrupt protein binding to DNA regardless of their affinity to the protein. All of the ligands were kept as solutions in DMSO. Before using, they were thawed in a room temperature water bath.

[7] = CP/dsDNA-AuNPs hybrid sensor (ACP-430)
[8] = CP/dsDNA-AuNPs hybrid sensor (ACP-560)
[9] = CP/dsDNA-AuNPs hybrid sensor (CCP-410)

T1 sequence (Q92754 whole entry, species assumed): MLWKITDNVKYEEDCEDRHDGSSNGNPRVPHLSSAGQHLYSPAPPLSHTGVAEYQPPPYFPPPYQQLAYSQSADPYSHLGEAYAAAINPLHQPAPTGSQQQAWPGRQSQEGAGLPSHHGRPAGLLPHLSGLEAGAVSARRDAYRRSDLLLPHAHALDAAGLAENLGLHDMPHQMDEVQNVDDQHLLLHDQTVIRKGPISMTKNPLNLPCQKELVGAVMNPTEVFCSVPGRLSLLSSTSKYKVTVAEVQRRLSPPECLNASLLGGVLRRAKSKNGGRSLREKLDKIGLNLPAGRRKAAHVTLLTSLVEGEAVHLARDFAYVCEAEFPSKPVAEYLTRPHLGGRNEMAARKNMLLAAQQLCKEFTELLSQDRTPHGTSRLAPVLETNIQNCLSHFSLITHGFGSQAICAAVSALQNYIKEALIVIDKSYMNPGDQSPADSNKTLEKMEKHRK

Molecule | Kd (FoxA1 [4]; [7]) [nM] | Kd (FoxA1 [4]; [8]) [nM] | Kd (FoxA1 [4]; [9]) [nM] | Kd (FoxA1 [5]) [nM] | Kd (His-MBP-FoxA1) [nM] | other results
wtR3: GC rich wild-type DNA for AP-2γ, 5′-AAAGTGCCCAGAGCCCATG-3′ (SEQ ID NO: 7) with complementary strand (antisense CATGGGCTCTGGGCACTTT; DNA, backbone and methylation of C not given here; sense strand 5'-thiol-labelled, conjugated to gold nanoparticles) |  |  |  |  |  | Kd (AP-2γ [1]): 50.6 nM; Kd (AP-2γ [2]; read-out: Binding constant (Kd), CP/dsDNA-AuNPs hybrid sensor (ACP-430)): 12.4 nM; Kd (AP-2γ [2]; read-out: Binding constant (Kd), CP/dsDNA-AuNPs hybrid sensor (ACP-560)): 14.6 nM; Kd (AP-2γ [2]; read-out: Binding constant (Kd), CP/dsDNA-AuNPs hybrid sensor (CCP-410)): 13 nM; Kd (AP-2γ [3]): 139 nM
Probe1: FoxA1 DNA probe 5′-CACTTTGTTTGCAAAGC-3′ (SEQ ID NO: 1) with complementary strand; modified at the centre (antisense GCTTTGCAAACAAAGTG; DNA, backbone and methylation of C not given here; sense strand 5'-thiol-labelled, conjugated to gold nanoparticles) | 31.3 | 32.9 | 34.1 | 459 | 231 | 
Nc1ccc2nc3ccc(=O)cc-3n(-c3ccccc3)c2c1 [Ligand 4] |  |  |  |  |  | Ligand effect on FoxA1-DNA binding (FoxA1 [6]; ACP-430/Probe2-AuNP and CCP-410/Probe2-AuNP): negligible effect; Ligand influence on FoxA1-Probe2 binding (FoxA1 [6]; ACP-430/Probe2-AuNP): retain its binding capability; Selectivity for FoxA1 and AP2γ (FoxA1 and AP2γ): Negative
Probe2: Ideal FoxA1 DNA probe 5′-GTACTGTAAATAAAACT-3′ (SEQ ID NO: 3) with complementary strand (antisense AGTTTTATTTACAGTAC; DNA, backbone and methylation of C not given here; sense strand 5'-thiol-labelled, conjugated to gold nanoparticles) | 4.47 | 5.76 | 5.02 | 47.8 | 16 | 
